Source: publication PMC7534330, “UHPLC-MS/MS method for pharmacokinetic and bioavailability determination of five bioactive components in raw and various processed products of Polygala tenuifolia in rat plasma” (Pharmaceutical Biology, 2020)

Columns and labels:
[1] = Pharmacokinetics of five components in rat plasma after oral administration of RPT, LPT and HPT extracts (UHPLC-MS/MS); conditions: male, SD, in vivo, 1.9 g/kg; for AUC(0-t): AUC0-t; for AUC(0-inf): AUC0-∞; for MRT last: MRT0-t; for half-life: t1/2
Procedure: (§1) A Thermo Hypersil Gold C18 column (3.0 × 100 mm, i.d.; 3 μm) was used for chromatographic separation. An aqueous 10 mM ammonium acetate solution (A) and acetonitrile (B) were selected as the mobile phase components. The optimal gradient program involved the following steps: 5% B (0–1 min), changing to 85% B (1–3.5 min), 85% B (3.5–4.0 min), changing to 5% B (4.0–4.1 min) and 5% B (4.1–5.0 min). The flow rate was set to 0.4 mL/min, the autosampler was maintained at 4 °C and the injection volume was 5 μL.
(§2) UHPLC-MS/MS was conducted by an Applied Biosystems (AB) Sciex Exion LC system (Foster City, CA) connected to a 6500 + triple quad tandem mass spectrometer with an electrospray ionization source. All detection and quantifications were carried out in positive multiple reaction monitoring (MRM) mode. The optimized parameters were programmed as follows: ion source temperature, 500 °C; curtain gas pressure, 30 kPa; ion source gas 1 pressure, 55 kPa; ion source gas 2 pressure, 55 kPa; and ion spray voltage, […]. The chemical structures and ion mass spectra of targeted compounds are shown in Figure 1. The precursor ion and product ion were m/z 517.1 → 174.9 for A5, m/z 547.0 → 204.9 for A6, m/z 753.2 → 205.2 for DSS, m/z 681.3 → 443.3 for TFSA, m/z 236.8 → 103.2 for TMCA and m/z 136.9 → 92.9 for IS. All data were acquired by using AB Sciex Analyst software (version 1.6.3).
(§3) After thawing the frozen blood samples at room temperature, a 100 μL aliquot of plasma was spiked with 50 μL of the IS working solution in 2 mL EP tubes, and 750 μL of methanol was added into each of the tubes. Then, these tubes were mixed on a multi-tube Vortexer for 0.5 min before centrifugation at 11,800×g for 10 min. Finally, 200 μL of the obtained supernatant was transferred to a fresh autosampler vial, and then 5 μL of the sample was injected for analysis.
Male SD rats were randomly divided into four groups (n = 6 in each group), including the RPT group, LPT group, HPT group and control group. All oral administration samples were mixed with 0.5% CMC-Na (w/v) and then given to rats at a dose equivalent to 1.9 g/kg of RPT extract. The control group was orally treatment with equal volume of 0.5% CMC-Na solution. After a single administration, all blood samples were collected from the orbital vein into heparinized centrifuge tubes before administration (0 h) and at 0.083, 0.17, 0.25, 0.5, 0.75, 1, 1.5, 2, 3, 5, 8 and 12 h after administration and then centrifuged at 4 °C and 11,800×g for 10 min. The separated supernatant samples were preserved at −80 °C until they were measured.
(§4) The elementary pharmacokinetic parameters of plasma samples were analyzed by DAS 2.0 pharmacokinetic software. One-way analysis of variance (ANOVA) was used for statistical comparison for pharmacokinetic and interaction studies. A p-value < 0.05 indicated a significant difference. The main parameters considered were as follows: AUC0–∞ (the area under the blood concentration-time curve from zero to infinity initial plasma concentration), MRT (the mean residence time), Cmax (peak plasma concentration) and Tmax (time to reach Cmax for oral dose), t1/2 (elimination half-life) (He et al. [2015]). The absolute bioavailability (F) was evaluated as follows: F(%)=(AUCoral×Dosei.v.)/(AUCi.v.×Doseoral)×100%

[2] = Pharmacokinetics and absolute bioavailability of five compounds after oral and i.v. administration (UHPLC-MS/MS); type: in vivo; conditions: rat, in vivo; for AUCΔ0-t (dose-normalized) / AUCΔ0-∞ (dose-normalized) / CΔmax (dose-normalized) / half-life / Tmax: SD
Procedure: as §1, §2, §3
The SD rats were randomly divided into oral and i.v. groups for A5, A6, DSS, TFSA and TMCA administration (n = 6 in each group). The oral doses of A5, A6, DSS, TFSA and TMCA groups were 7.40, 11.60, 16.00, 50.00 and 3.11 mg/kg, respectively, and the corresponding i.v. doses were 0.74, 1.16, 1.60, 5.00 and 0.31 mg/kg, respectively. Blood samples were collected from the suborbital vein into heparinized tubes before and 0, 0.083, 0.17, 0.25, 0.5, 1, 2, 3, 5 and 8 h after administration. The treatment method of blood samples was the same as that mentioned above.
as §4

[3] = Stability of the five analytes in rat plasma; type: in vitro ADME; conditions: rat; for Long-term stability, Mean: 4 weeks; for Short-term stability, Mean: 5 h; for Auto-sampler stability, Mean: 24 h
Procedure: Stock standards of A5, A6, DSS, TFSA, TMCA and IS were prepared in methanol at a concentration of 1 mg/mL. A series of working standard solutions of the targeted compounds ranging from 10 to 20,000 ng/mL and the IS solution at 600 ng/mL were prepared by diluting the stock solutions with methanol and maintained at −20 °C. Calibration standards were freshly prepared by spiking the series of standard solutions (30 μL) including the IS into blank rat plasma (270 μL) to achieve concentrations of 1, 10, 50, 100, 500, 1000, 1600 and 2000 ng/mL. Quality control (QC) samples were prepared independently at low (2 ng/mL), medium (600 ng/mL) and high (1600 ng/mL) concentrations following the same method for the five compounds.
Stability studies included short-term stability (5 h at room temperature, i.e. 25 °C), freeze-thaw stability (three consecutive freeze-thaw cycles from −20 °C to room temperature), autosampler stability (24 h storage in the autosampler at 4 °C) and long-term stability (4 weeks storage at −80 °C). The stability data of all analytes are presented in Supplementary Table S4.

| Compound | Cmax [1] | AUCΔ0-t (dose-normalized) ([2]; iv) | AUCΔ0-∞ (dose-normalized) ([2]; iv) | CΔmax (dose-normalized) ([2]; iv) | half-life ([2]; iv) | AUCΔ0-t (dose-normalized) ([2]; po) | AUCΔ0-∞ (dose-normalized) ([2]; po) | CΔmax (dose-normalized) ([2]; po) | half-life ([2]; po) | Tmax ([2]; po) | F, absolute bioavailability [2] | Freeze-thaw stability, Mean ([3]; 2 ng/mL) | Freeze-thaw stability, Mean ([3]; 600 ng/mL) | Freeze-thaw stability, Mean ([3]; 1600 ng/mL) | Long-term stability, Mean ([3]; 2 ng/mL) | Long-term stability, Mean ([3]; 600 ng/mL) | Long-term stability, Mean ([3]; 1600 ng/mL) | Short-term stability, Mean ([3]; 2 ng/mL) | Short-term stability, Mean ([3]; 600 ng/mL) | Short-term stability, Mean ([3]; 1600 ng/mL) | also measured |
| --- | --- | --- | --- | --- | --- | --- | --- | --- | --- | --- | --- | --- | --- | --- | --- | --- | --- | --- | --- | --- | --- |
| COc1cc(/C=C/C(=O)O[C@H]2[C@H](O)[C@@H](CO)O[C@@]2(CO)O[C@H]2O[C@H](COC(=O)c3ccc(O)cc3)[C@@H](O)[C@H](O)[C@H]2O)cc(OC)c1OC [TFSA, tenuifoliside A] | 107 ± 47.7 ng/mL | 163.79 ± 11.83 ng·h/mL | 163.80 ± 11.83 ng·h/mL | 375.56 ± 13.65 ng/mL | 0.49 ± 0.06 h | 1.92 ± 0.85 ng·h/mL | 1.92 ± 0.85 ng·h/mL | 1.88 ± 0.76 ng/mL | 0.92 ± 0.21 h | ~0.19 h | 1.17 % of dose | 96.5% | 96.3% | 97.4% | 89.9% | 96.3% | 96.2% | 97.6% | 97.9% | 98.5% | AUC(0-t) [1]: 284 ± 185 ng·h/mL; AUC(0-inf) [1]: 297 ± 194 ng·h/mL; MRT last [1]: 2.92 ± 0.58 h; Auto-sampler stability, Mean ([3]; 2 ng/mL): 96.6%; Auto-sampler stability, Mean ([3]; 600 ng/mL): 98.2%; Auto-sampler stability, Mean ([3]; 1600 ng/mL): 96.3% |
| COc1cc(C=CC(=O)OC2C(O)C(CO)OC2(CO)OC2OC(CO)C(O)C(O)C2O)cc(OC)c1O (stereo not shown) [A6, Sibiricose A6] | 183 ± 30.8 ng/mL | 299.15 ± 100.23 ng·h/mL | 299.16 ± 100.23 ng·h/mL | 1204.66 ± 249.66 ng/mL | 0.59 ± 0.1 h | 8.82 ± 2.40 ng·h/mL | 8.82 ± 2.40 ng·h/mL | 4.95 ± 1.64 ng/mL | 0.62 ± 0.16 h | 0.5 h | 2.95 % of dose | 92.4% | 91.5% | 98.3% | 93.5% | 96.3% | 96.5% | 91.5% | 94.7% | 97.4% | AUC(0-t) [1]: 570 ± 179 ng·h/mL; AUC(0-inf) [1]: 572 ± 179 ng·h/mL; MRT last [1]: 3.21 ± 0.78 h; Tmax ([1]; Tmax): 3.2 ± 1.64 h; half-life [1]: 1.43 ± 0.12 h; Auto-sampler stability, Mean ([3]; 2 ng/mL): 87.5%; Auto-sampler stability, Mean ([3]; 600 ng/mL): 92.1%; Auto-sampler stability, Mean ([3]; 1600 ng/mL): 97.3% |
| COc1cc(C=CC(=O)OCC2OC(OC3(CO)OC(CO)C(O)C3OC(=O)C=Cc3cc(OC)c(O)c(OC)c3)C(O)C(O)C2O)cc(OC)c1O (stereo not shown) [DSS, 3,6′-disinapoyl sucrose] | 74.1 ± 30.2 ng/mL | 106.32 ± 12.09 ng·h/mL | 107.00 ± 12.09 ng·h/mL | 682.88 ± 120.92 ng/mL | 0.98 ± 0.27 h | 2.51 ± 1.07 ng·h/mL | 2.86 ± 1.33 ng·h/mL | 4.39 ± 1.69 ng/mL | 1.01 ± 0.45 h | 0.17 h | 2.36 % of dose | 89.3% | 97.3% | 99.7% | 95.3% | 97.3% | 93.2% | 95.3% | 98.5% | 98.1% | Auto-sampler stability, Mean ([3]; 2 ng/mL): 92.1%; Auto-sampler stability, Mean ([3]; 600 ng/mL): 97.7%; Auto-sampler stability, Mean ([3]; 1600 ng/mL): 98.6% |
| COc1cc(/C=C/C(=O)O[C@H]2[C@H](O)[C@@H](CO)O[C@@]2(CO)O[C@H]2O[C@H](CO)[C@@H](O)[C@H](O)[C@H]2O)ccc1O [A5, Sibiricose A5] | 169 ± 16.1 ng/mL | 368.32 ± 57.16 ng·h/mL | 368.34 ± 57.18 ng·h/mL | 1784.32 ± 136.39 ng/mL | 1.22 ± 0.07 h | 11.99 ± 2.01 ng·h/mL | 12.01 ± 2.00 ng·h/mL | 9.21 ± 2.30 ng/mL | 1.27 ± 0.55 h | 0.25 h | 3.25 % of dose | 92.1% | 93.5% | 101.6% | 88.6% | 97.9% | 96.6% | 94.4% | 95.2% | 98.3% | Tmax [1]: 2.60 ± 0.71 h; AUC(0-t) [1]: 552 ± 31.1 ng·h/mL; AUC(0-inf) [1]: 553 ± 47.1 ng·h/mL; MRT last [1]: 2.64 ± 0.18 h; Tmax ([1]; Tmax): 2 h; half-life [1]: 1.23 ± 0.21 h; Auto-sampler stability, Mean ([3]; 2 ng/mL): 89.4%; Auto-sampler stability, Mean ([3]; 600 ng/mL): 94.2%; Auto-sampler stability, Mean ([3]; 1600 ng/mL): 98.7% |
